Data published in publication PMC6298744 (Biochemical pharmacology, 2018).
Counter-ions that a name gives are not always drawn. Like-named read-outs stand apart in the source and are kept apart here.

Tests used:
[1] = target: T1, hDAT (Homo sapiens, UniProt Q01959); experiment: Release of preloaded [^3H]DA from HEK-hDAT cells; format: cell-based; conditions: for % maximum release, hDAT [^3H]DA: relative to maximum release induced by METH (1–10 μM)
[2] = target: T2, 5-HT2C receptor (Homo sapiens, UniProt P28335); experiment: cell-based
T2 sequence (P28335 33-458): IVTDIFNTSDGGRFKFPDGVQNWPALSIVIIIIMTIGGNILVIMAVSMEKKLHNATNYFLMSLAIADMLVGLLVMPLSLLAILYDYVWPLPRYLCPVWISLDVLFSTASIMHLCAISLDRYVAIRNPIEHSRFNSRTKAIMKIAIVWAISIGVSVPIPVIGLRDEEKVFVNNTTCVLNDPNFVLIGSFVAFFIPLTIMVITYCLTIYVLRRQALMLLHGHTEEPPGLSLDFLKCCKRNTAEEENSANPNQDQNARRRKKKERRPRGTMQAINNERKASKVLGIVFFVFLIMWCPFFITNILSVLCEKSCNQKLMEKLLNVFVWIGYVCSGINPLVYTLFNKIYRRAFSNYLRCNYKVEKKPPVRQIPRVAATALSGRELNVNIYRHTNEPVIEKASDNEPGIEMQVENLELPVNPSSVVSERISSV

[3] = target: T3, 5-HT2A receptor (Homo sapiens, UniProt P28223); experiment: cell-based; format: cell-based; conditions: for Selectivity (functional ratios) 5-HT2A: 5-HT1A / Selectivity (functional ratios) 5-HT2A: 5-HT2B / Selectivity (functional ratios) 5-HT2A: 5-HT2C: ratio of EC50 values; for EC50: mean ± sem
[4] = target: T4, hNET (Homo sapiens, UniProt P23975); experiment: biochemical; format: binding
[5] = target: T1, hDAT; experiment: Inhibition of [^125I]RTI-55 binding to hDAT
[6] = target: T5, hSERT (Homo sapiens, UniProt P31645); experiment: Release of preloaded [^3H]5-HT from HEK-hSERT cells; format: cell-based; conditions: for % maximum release, hSERT [^3H]5-HT: relative to maximum release induced by METH (0.3–1 mM)
[7] = target: T6, 5-HT2B receptor (Homo sapiens, UniProt P41595); experiment: 5-HT2B receptor inositol monophosphate; format: cell-based
[8] = target: T7, human 5-HT1A receptor (Homo sapiens, UniProt P08908); experiment: 5-HT1A receptor [^3H]8-OH-DPAT radioligand binding
T7 sequence (P08908 1-422): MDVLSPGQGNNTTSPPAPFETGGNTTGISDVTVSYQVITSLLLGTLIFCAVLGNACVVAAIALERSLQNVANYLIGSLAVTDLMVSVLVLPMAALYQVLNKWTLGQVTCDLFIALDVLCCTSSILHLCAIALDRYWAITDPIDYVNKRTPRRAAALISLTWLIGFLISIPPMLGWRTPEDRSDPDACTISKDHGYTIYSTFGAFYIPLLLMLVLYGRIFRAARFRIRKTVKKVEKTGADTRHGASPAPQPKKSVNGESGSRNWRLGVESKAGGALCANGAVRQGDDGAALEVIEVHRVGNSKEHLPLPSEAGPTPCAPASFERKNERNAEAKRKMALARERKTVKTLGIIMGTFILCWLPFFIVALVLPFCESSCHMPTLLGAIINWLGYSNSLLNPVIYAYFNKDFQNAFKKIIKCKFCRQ

[9] = target: T5, hSERT; experiment: Inhibition of [^125I]RTI-55 binding to hSERT
[10] = target: T3, 5-HT2A receptor; experiment: biochemical; format: binding; conditions: for Selectivity (binding ratios) 5-HT2A : 5-HT1A / Selectivity (binding ratios) 5-HT2A : 5-HT2B / Selectivity (binding ratios) 5-HT2A : 5-HT2C: ratio of Ki values
[11] = target: T4, hNET; experiment: Release of preloaded [^3H]NE from HEK-hNET cells; format: cell-based; conditions: for % maximum release, hNET [^3H]NE: relative to maximum release induced by METH (0.3–1 μM)
[12] = target: T7, human 5-HT1A receptor; experiment: 5-HT1A receptor [^35S]GTPγS binding stimulation; format: biochemical
[13] = target: T1, hDAT; experiment: Inhibition of [^3H]DA uptake by HEK-hDAT cells; format: cell-based
[14] = target: T5, hSERT; experiment: Inhibition of [^3H]5-HT uptake by HEK-hSERT cells; format: cell-based
[15] = target: T6, 5-HT2B receptor; experiment: 5-HT2B receptor [^3H]5-HT binding
[16] = target: T4, hNET; experiment: cell-based
[17] = taken hours after ingestion; cited from earlier work
[18] = normalized to the maximal stimulation by 5-HT

T5 sequence (P31645 whole entry): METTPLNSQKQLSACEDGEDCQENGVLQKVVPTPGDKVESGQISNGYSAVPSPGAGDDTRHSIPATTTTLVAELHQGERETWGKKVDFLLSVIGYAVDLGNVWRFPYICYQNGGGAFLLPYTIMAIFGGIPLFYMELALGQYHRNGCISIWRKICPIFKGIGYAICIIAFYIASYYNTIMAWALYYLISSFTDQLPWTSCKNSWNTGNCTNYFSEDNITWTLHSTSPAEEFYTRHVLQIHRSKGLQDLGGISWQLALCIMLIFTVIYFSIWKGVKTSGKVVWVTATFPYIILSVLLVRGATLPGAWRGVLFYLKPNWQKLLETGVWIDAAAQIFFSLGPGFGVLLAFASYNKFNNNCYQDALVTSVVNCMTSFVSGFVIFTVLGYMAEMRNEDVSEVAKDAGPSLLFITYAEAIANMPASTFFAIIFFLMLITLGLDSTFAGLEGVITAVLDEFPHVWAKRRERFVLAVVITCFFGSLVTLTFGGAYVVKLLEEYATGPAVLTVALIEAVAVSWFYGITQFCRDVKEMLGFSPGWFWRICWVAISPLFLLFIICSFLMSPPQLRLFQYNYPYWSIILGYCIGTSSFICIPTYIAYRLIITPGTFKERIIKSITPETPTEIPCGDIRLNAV
T6 sequence (P41595 whole entry): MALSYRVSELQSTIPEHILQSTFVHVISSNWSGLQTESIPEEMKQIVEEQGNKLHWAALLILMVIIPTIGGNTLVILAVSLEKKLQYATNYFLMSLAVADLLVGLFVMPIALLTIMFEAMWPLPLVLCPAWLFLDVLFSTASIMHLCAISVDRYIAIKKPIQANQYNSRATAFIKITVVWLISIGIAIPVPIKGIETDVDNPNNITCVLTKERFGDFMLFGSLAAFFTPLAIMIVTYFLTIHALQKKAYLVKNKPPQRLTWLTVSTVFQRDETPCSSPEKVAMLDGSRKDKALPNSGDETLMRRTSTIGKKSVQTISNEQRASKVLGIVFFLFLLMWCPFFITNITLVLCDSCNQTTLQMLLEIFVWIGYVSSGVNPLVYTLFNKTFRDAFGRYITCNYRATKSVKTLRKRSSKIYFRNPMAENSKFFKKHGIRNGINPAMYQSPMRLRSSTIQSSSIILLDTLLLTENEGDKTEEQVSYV
T4 sequence (P23975 whole entry): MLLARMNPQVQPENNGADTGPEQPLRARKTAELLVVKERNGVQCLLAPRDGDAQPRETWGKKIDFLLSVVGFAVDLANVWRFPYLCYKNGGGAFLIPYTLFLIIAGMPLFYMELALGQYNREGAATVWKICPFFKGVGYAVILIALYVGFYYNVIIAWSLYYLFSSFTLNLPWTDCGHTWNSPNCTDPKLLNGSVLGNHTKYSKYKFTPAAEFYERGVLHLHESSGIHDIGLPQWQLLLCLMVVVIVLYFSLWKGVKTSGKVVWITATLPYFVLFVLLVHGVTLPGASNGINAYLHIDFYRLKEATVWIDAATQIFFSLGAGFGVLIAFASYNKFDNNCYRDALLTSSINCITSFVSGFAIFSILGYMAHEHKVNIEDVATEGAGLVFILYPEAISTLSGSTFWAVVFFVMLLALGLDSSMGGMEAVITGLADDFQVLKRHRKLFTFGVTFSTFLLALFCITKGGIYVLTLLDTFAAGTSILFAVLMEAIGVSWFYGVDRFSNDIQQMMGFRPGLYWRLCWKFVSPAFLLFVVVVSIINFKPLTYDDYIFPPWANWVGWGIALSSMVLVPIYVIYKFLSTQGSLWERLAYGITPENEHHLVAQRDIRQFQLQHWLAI
T1 sequence (Q01959 whole entry): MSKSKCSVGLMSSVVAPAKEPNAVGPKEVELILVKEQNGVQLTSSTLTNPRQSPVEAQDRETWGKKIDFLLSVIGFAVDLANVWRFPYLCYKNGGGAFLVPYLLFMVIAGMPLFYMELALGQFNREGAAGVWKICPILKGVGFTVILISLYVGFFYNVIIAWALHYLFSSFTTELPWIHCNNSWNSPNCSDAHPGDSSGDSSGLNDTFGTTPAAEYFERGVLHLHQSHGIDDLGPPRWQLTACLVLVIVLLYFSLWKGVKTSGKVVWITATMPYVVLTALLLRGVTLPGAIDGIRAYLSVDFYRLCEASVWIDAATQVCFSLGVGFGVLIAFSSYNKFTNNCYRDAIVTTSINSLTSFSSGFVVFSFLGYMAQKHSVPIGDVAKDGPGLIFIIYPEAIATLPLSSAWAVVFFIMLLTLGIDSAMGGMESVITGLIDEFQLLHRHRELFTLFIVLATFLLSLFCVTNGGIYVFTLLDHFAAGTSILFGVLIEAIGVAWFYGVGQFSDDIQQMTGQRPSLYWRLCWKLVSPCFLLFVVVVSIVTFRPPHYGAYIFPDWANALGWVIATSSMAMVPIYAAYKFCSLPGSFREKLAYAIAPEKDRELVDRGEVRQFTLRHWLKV
T3 sequence (P28223 whole entry): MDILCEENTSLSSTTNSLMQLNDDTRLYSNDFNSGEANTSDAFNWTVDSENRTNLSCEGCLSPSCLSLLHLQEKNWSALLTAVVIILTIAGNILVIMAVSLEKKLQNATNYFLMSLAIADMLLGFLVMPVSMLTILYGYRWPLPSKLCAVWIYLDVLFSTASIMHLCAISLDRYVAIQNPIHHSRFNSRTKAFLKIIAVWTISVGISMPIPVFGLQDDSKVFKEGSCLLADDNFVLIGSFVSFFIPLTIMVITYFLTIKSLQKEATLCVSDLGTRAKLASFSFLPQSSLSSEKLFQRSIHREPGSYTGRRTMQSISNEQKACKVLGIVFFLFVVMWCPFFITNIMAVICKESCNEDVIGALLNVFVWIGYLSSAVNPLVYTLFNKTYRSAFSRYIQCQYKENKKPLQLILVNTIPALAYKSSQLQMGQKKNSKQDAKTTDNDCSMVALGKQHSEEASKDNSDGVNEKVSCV

Row | SMILES | % maximum release, hDAT [^3H]DA [1] [%] | Selectivity (functional ratios) 5-HT2A: 5-HT1A [3] | Selectivity (functional ratios) 5-HT2A: 5-HT2B [3] | Selectivity (functional ratios) 5-HT2A: 5-HT2C [3] | % maximum release, hSERT [^3H]5-HT [6] [%] | Selectivity (binding ratios) 5-HT2A : 5-HT1A [10] | Selectivity (binding ratios) 5-HT2A : 5-HT2B [10] | Selectivity (binding ratios) 5-HT2A : 5-HT2C [10] | % maximum release, hNET [^3H]NE [11] [%] | IC50 [13] [µM] | Ki [4] [µM] | Ki [5] [µM] | IC50 [14] [µM] | IC50 [16] [µM] | Ki [9] [µM] | further results
1 | COc1cc([N+](=O)[O-])c(OC)cc1CCNCc1ccccc1OC [25N-NBOMe] | −0.89 ± 0.91 | 9400 | 92 | 2.6 | −0.25 ± 0.54 | 15700 | 60 | 7.4 | 25 ± 15 | – | – | – | – | – | – | EC50 ([1]; read-out: Drug-induced release of [^3H]neurotransmitter EC50, hDAT [^3H]DA, mean ± sem, HEK-hDAT): > 100 µM; % maximum stimulation, 5-HT2C stimulation of IP-1 formation [2, 18]: 99.4 ± 0.4%; EC50 ([2]; read-out: EC50, 5-HT2C stimulation of IP-1 formation, mean ± sem): 0.00132 ± 0.00027 µM; % maximum stimulation, 5-HT2A stimulation of IP-1 formation [3, 18]: 87.9 ± 3.4%; EC50 ([3]; read-out: EC50, 5-HT2A stimulation of IP-1 formation): 0.00051 ± 0.00019 µM; Ki ([4]; read-out: Inhibition of [^125I]RTI-55 binding Ki, hNET, mean ± sem, HEK-hNET): 11.3 ± 3.5 µM; Ki ([5]; read-out: Inhibition of [^125I]RTI-55 binding Ki, hDAT, mean ± sem, HEK-hDAT): 37.9 ± 4.6 µM; EC50 ([6]; read-out: Drug-induced release of [^3H]neurotransmitter EC50, hSERT [^3H]5-HT, mean ± sem, HEK-hSERT): > 100 µM; % maximum stimulation, 5-HT2B stimulation of IP-1 formation [7, 18]: 57.6 ± 8.6%; EC50 ([7]; read-out: EC50, 5-HT2B stimulation of IP-1 formation, mean ± sem): 0.047 ± 0.011 µM; Ki ([8]; read-out: Inhibition of radioligand binding Ki, 5-HT1A [^3H]8OH-DPAT, mean ± sem, recombinant human 5-HT1A in HEK cells, agonist radioligand): 2.26 ± 0.23 µM; Ki ([9]; read-out: Inhibition of [^125I]RTI-55 binding Ki, hSERT, mean ± sem, HEK-hSERT): 5.81 ± 0.9 µM; EC50 ([11]; read-out: Drug-induced release of [^3H]neurotransmitter EC50, hNET [^3H]NE, mean ± sem, HEK-hNET): > 38 µM; % maximum stimulation, 5-HT1A stimulation of [^35S]GTPγS binding [12, 18]: 35.6 ± 6.6%; EC50 ([12]; read-out: EC50, 5-HT1A stimulation of [^35S]GTPγS binding, mean ± sem): 4.8 ± 1.8 µM
2 | COc1cc(CCNCc2ccccc2OC)c(OC)cc1C [25D-NBOMe, 2-(2,5-dimethoxy-4-methylphenyl)-N-(2-methoxybenzyl)ethanamine] | 0.75 ± 0.48 | 3900 | 21 | 0.90 | 0.59 ± 0.24 | 20500 | 9.3 | 3.1 | 14.3 ± 8.5 | > 85 | 6.7 ± 1.3 | 34.5 ± 4.2 | 1.02 ± 0.078 | 1.17 ± 0.14 | 1.78 ± 0.28 | EC50 [1]: > 100 µM; EC50 [2]: 0.00137 ± 0.00036 µM; Emax ([2]; read-out: % maximum stimulation, 5-HT2C stimulation of IP-1 formation): 96.1%; EC50 ([3]; EC50, 5-HT2A stimulation of IP-1 formation): 0.00153 ± 0.0001 µM; Emax ([3]; read-out: % maximum stimulation, 5-HT2A stimulation of IP-1 formation): 95.1%; EC50 [6]: > 100 µM; Ki [15]: 0.00205 ± 0.00049 µM; EC50 [7]: 0.0323 ± 0.0068 µM; Emax ([7]; read-out: % maximum stimulation, 5-HT2B stimulation of IP-1 formation): 47.7%; Ki [8]: 4.51 ± 0.73 µM; Ki [10]: 0.00022 ± 2.6e-05 µM; EC50 [11]: > 33 µM; EC50 [12]: 5.9 ± 1.9 µM; Emax ([12]; read-out: % maximum stimulation, 5-HT1A stimulation of [^35S]GTPγS binding): 55%
3 | COc1cc(CCNCc2ccccc2OC)c(OC)cc1Cl [25C-NBOMe] | – | – | – | – | – | – | – | – | – | – | – | – | – | – | – | Human blood concentration [17]: 2.80 ng/mL
4 | OC1(c2ccc(Cl)cc2)c2ccccc2C2=NCCN21 (centres unmarked) [Mazindol, reference compound] | – | – | – | – | – | – | – | – | – | – | 0.0116 ± 0.0035 | – | 0.069 ± 0.012 | 0.0011 ± 0.0003 | 0.127 ± 0.039 | –
5 | NCCc1c[nH]c2ccc(O)cc12 [5-HT, Serotonin hydrochloride, reference compound] | – | – | – | – | – | – | – | – | – | 3.36 ± 0.32 | 392 ± 10 | 375 ± 83 | – | 7.2 ± 2.5 | – | –
